Results taken from patent US20020137929A1, “1 - (3-heterocyclylphenyl) isothiourea, -isourea, -guanidine and -amidine herbicidal agents” (Intellectual Property Department, BASF Aktiengesellschaft, priority 1998, published 2002).

Legend:
ORYSAT (Rice, Tebonnet) [1] = experiment: Preemergence herbicidal evaluation; format: in vivo, Oryza sativa, (L.) Tebonnet; details: rated 4-5 weeks after treatment, rating scale 0-9
How it was run: (§1)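 Each species is sown separately in potting soil over roughly an inch of soil before any emergence. The soil surface then receives an aqueous acetone spray delivering about 0.0156 to 0.500 kg/ha of compound. After four to five weeks, injury is scored from 0 to 9 relative to a control.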

SETVI (Foxtail, Green) = experiment: Preemergence herbicidal evaluation; format: in vivo, Setaria viridis; details: rated 4-5 weeks after treatment, rating scale 0-9
How it was run: as §1

CYPIR (Rice Flatsedge) = experiment: Preemergence weed control under flooded paddy conditions; format: in vivo, Cyperus iria; details: rated 3-4 weeks after treatment
How it was run: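 First, seeds or propagules go into the top 0.5 cm of silt loam; next, water is held 1.5 to 3 cm over the soil; then compound (50/50 acetone/water) is pipetted into it at about 0.0313 to 0.500 kg/ha; finally plants are rated visually 0-9 after three to four weeks.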

ECHCG (Barnyardgrass) = experiment: Postemergence herbicidal evaluation; format: in vivo, Echinochloa crus-galli; details: postemergence
How it was run: (§2)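 Compound is applied as a foliar spray to seedlings about two weeks old, formulated in equal parts acetone and water with 0.5% TWEEN 20 and delivered at 40 psi to give about 0.0156–0.500 kg per hectare. Injury is rated visually 0–9 after four to five weeks.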

GALAP (Galium) = experiment: Preemergence herbicidal evaluation; format: in vivo, Galium aparine; details: rated 4-5 weeks after treatment, rating scale 0-9
How it was run: as §1

MOOVA (Monochoria) = experiment: Preemergence weed control under flooded paddy conditions; format: in vivo, Monochoria vaginalis; details: rated 3-4 weeks after treatment
How it was run: (§3)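 Herbicidal effect is scored visually on a 0-9 scale against an untreated control, three to four weeks after compounds are pipetted into the flood water (1.5 to 3 cm deep) over seeds planted in silt loam at 0.5 cm depth. Rates: about 0.0313 to 0.500 kg/ha.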

[2] = tested on: TRZAWR (Wheat, Winter, cv Riband); experiment: Preemergence herbicidal evaluation; format: in vivo, Triticum aestivum; details: rated 4-5 weeks after treatment, rating scale 0-9
How it was run: as §1

[3] = tested on: CHEAL (Lambsquarters, Common); experiment: Postemergence herbicidal evaluation; format: in vivo, Chenopodium album; details: postemergence
How it was run: as §2

ZEAMX (Corn, Field) = experiment: Preemergence herbicidal evaluation; format: in vivo, Zea mays; details: rated 4-5 weeks after treatment, rating scale 0-9
How it was run: as §1

[4] = tested on: GLXMAW (Soybean, Williams); experiment: Preemergence herbicidal evaluation; format: in vivo, Glycine max, (L.) Merr. cv Williams; details: rated 4-5 weeks after treatment, rating scale 0-9
How it was run: as §1

CASOB (Sicklepod) = experiment: Postemergence herbicidal evaluation; format: in vivo, Cassia obtusifolia; details: postemergence
How it was run: as §2

[5] = tested on: SAGPY (Arrowhead (Pygmaea)); experiment: Preemergence weed control under flooded paddy conditions; format: in vivo, Sagittaria pygmaea; details: rated 3-4 weeks after treatment
How it was run: as §3

ORYSAT (Rice, Tebonnet) [6] = experiment: Postemergence herbicidal evaluation; format: in vivo, Oryza sativa, (L.) Tebonnet; details: postemergence
How it was run: as §2

COc1ccc(CN2C(=O)CSC2=Nc2cc(-n3c(=O)cc(C(F)(F)F)n(C)c3=O)c(F)cc2Cl)c(OC)c1 [Compound 139, 3-{4-Chloro-5-{[3-(2,4-dimethoxybenzyl)-4-oxo-2-thiazolidinylidene]amino}-2-fluorophenyl}-1-methyl-6-(trifluoromethyl)-2,4(1H,3H)-pyrimidinedione]
Preemergence herbicidal rating ORYSAT (ORYSAT (Rice, Tebonnet) [1]; rate 0.0156 kg/ha): 0.0 | Preemergence herbicidal rating ORYSAT (ORYSAT (Rice, Tebonnet) [1]; rate 0.0313 kg/ha): 0.0 | Preemergence herbicidal rating ORYSAT (ORYSAT (Rice, Tebonnet) [1]; rate 0.0625 kg/ha): 0.0 | Preemergence herbicidal rating ORYSAT (ORYSAT (Rice, Tebonnet) [1]; rate 0.1250 kg/ha): 1.0 | Preemergence herbicidal rating ORYSAT (ORYSAT (Rice, Tebonnet) [1]; rate 0.2500 kg/ha): 2.0 | Preemergence herbicidal rating SETVI (SETVI (Foxtail, Green); rate 0.0156 kg/ha): 0.0 | Preemergence herbicidal rating SETVI (SETVI (Foxtail, Green); rate 0.0313 kg/ha): 0.0 | Preemergence herbicidal rating SETVI (SETVI (Foxtail, Green); rate 0.0625 kg/ha): 0.0 | Preemergence herbicidal rating SETVI (SETVI (Foxtail, Green); rate 0.1250 kg/ha): 1.0 | Preemergence herbicidal rating SETVI (SETVI (Foxtail, Green); rate 0.2500 kg/ha): 7.0 | herbicidal effect rating, CYPIR (CYPIR (Rice Flatsedge); 0.0313 kg/ha): 2.0 | herbicidal effect rating, CYPIR (CYPIR (Rice Flatsedge); 0.0625 kg/ha): 4.0 | herbicidal effect rating, CYPIR (CYPIR (Rice Flatsedge); 0.1250 kg/ha): 5.0 | herbicidal effect rating, CYPIR (CYPIR (Rice Flatsedge); 0.2500 kg/ha): 6.0 | herbicidal rating ECHCG (ECHCG (Barnyardgrass); rate 0.0156 kg/ha): 3.0 | herbicidal rating ECHCG (ECHCG (Barnyardgrass); rate 0.0313 kg/ha): 2.0 | herbicidal rating ECHCG (ECHCG (Barnyardgrass); rate 0.0625 kg/ha): 3.0 | Preemergence herbicidal rating GALAP (GALAP (Galium); rate 0.0156 kg/ha): 0.0 | Preemergence herbicidal rating GALAP (GALAP (Galium); rate 0.0313 kg/ha): 0.0 | Preemergence herbicidal rating GALAP (GALAP (Galium); rate 0.0625 kg/ha): 0.0 | Preemergence herbicidal rating GALAP (GALAP (Galium); rate 0.1250 kg/ha): 0.0 | Preemergence herbicidal rating GALAP (GALAP (Galium); rate 0.2500 kg/ha): 0.0 | herbicidal effect rating, MOOVA (MOOVA (Monochoria); 0.0313 kg/ha): 4.0 | herbicidal effect rating, MOOVA (MOOVA (Monochoria); 0.0625 kg/ha): 5.0 | herbicidal effect rating, MOOVA (MOOVA (Monochoria); 0.1250 kg/ha): 7.0 | herbicidal effect rating, MOOVA (MOOVA (Monochoria); 0.2500 kg/ha): 7.0 | Preemergence herbicidal rating TRZAWR ([2]; rate 0.0156 kg/ha): 0.0 | Preemergence herbicidal rating TRZAWR ([2]; rate 0.0313 kg/ha): 0.0 | Preemergence herbicidal rating TRZAWR ([2]; rate 0.0625 kg/ha): 0.0 | Preemergence herbicidal rating TRZAWR ([2]; rate 0.1250 kg/ha): 0.0 | Preemergence herbicidal rating TRZAWR ([2]; rate 0.2500 kg/ha): 1.0 | herbicidal rating CHEAL ([3]; rate 0.0156 kg/ha): 9.0 | herbicidal rating CHEAL ([3]; rate 0.0313 kg/ha): 9.0 | herbicidal rating CHEAL ([3]; rate 0.0625 kg/ha): 9.0 | Preemergence herbicidal rating ZEAMX (ZEAMX (Corn, Field); rate 0.0156 kg/ha): 0.0 | Preemergence herbicidal rating ZEAMX (ZEAMX (Corn, Field); rate 0.0313 kg/ha): 0.0 | Preemergence herbicidal rating ZEAMX (ZEAMX (Corn, Field); rate 0.0625 kg/ha): 0.0 | Preemergence herbicidal rating ZEAMX (ZEAMX (Corn, Field); rate 0.1250 kg/ha): 0.0 | Preemergence herbicidal rating ZEAMX (ZEAMX (Corn, Field); rate 0.2500 kg/ha): 1.0 | Preemergence herbicidal rating GLXMAW ([4]; rate 0.0156 kg/ha): 0.0 | Preemergence herbicidal rating GLXMAW ([4]; rate 0.0313 kg/ha): 1.0 | Preemergence herbicidal rating GLXMAW ([4]; rate 0.0625 kg/ha): 0.0 | Preemergence herbicidal rating GLXMAW ([4]; rate 0.1250 kg/ha): 0.0 | Preemergence herbicidal rating GLXMAW ([4]; rate 0.2500 kg/ha): 1.0 | herbicidal rating CASOB (CASOB (Sicklepod); rate 0.0156 kg/ha): 4.0 | herbicidal rating CASOB (CASOB (Sicklepod); rate 0.0313 kg/ha): 5.0 | herbicidal rating CASOB (CASOB (Sicklepod); rate 0.0625 kg/ha): 9.0 | herbicidal effect rating, SAGPY ([5]; 0.0313 kg/ha): 0.0 | herbicidal effect rating, SAGPY ([5]; 0.0625 kg/ha): 0.0 | herbicidal effect rating, SAGPY ([5]; 0.1250 kg/ha): 0.0 | herbicidal effect rating, SAGPY ([5]; 0.2500 kg/ha): 0.0 | herbicidal rating ORYSAT (ORYSAT (Rice, Tebonnet) [6]; rate 0.0156 kg/ha): 2.0 | herbicidal rating ORYSAT (ORYSAT (Rice, Tebonnet) [6]; rate 0.0313 kg/ha): 3.0 | herbicidal rating ORYSAT (ORYSAT (Rice, Tebonnet) [6]; rate 0.0625 kg/ha): 3.5
